# Experimental data from article PMC3818701 (The Pediatric infectious disease journal, 2013).
# Like-named read-outs stand apart in the source and are kept apart here. Numbered stars: 1 amine (or outer) side, 2 acyl side, 3 side chain; on linkers, the order of the positions; unused ones are H or OH. Bridge positions count the residues as written; N and C are the ends. Square brackets hold non-standard residues; d marks the D form. Peptide text beside a SMILES is read from it. * marks the point of attachment. hTyr(3S-OH,4S-OH,3'-OSO3H) = N[C@H](C(=O)O)[C@H](O)[C@@H](O)c1ccc(O)c(OS(=O)(=O)O)c1; Orn(4R-OH,5R-OH) = O=C([C@H](C[C@@H](O)[C@@H](O)N[*:3])N[*:1])[*:2]; Pro(3S-OH,4S-Me) = C[C@H]1CN[C@H](C(=O)O)[C@H]1O; X1 = CCCCCOc1ccc(-c2cc(-c3ccc(C(=O)*)cc3)no2)cc1; Gln(3R-OH) = NC(=O)C[C@@H](O)[C@H](N)C(=O)O; Hyp = O=C(O)[C@@H]1C[C@@H](O)CN1
# Legend:
# Safety assessments = type: in vivo, human; settings: for AE leading to discontinuation / Any AE / Any SAE / Deaths: SAF, number of children (%)
# [1] = adults, cited from earlier work
# [2] = cited from earlier work
# [3] = cited from earlier work; for Cmax / Mean weight-adjusted CLss: children; for Mean AUCtau: febrile, neutropenic children with deep mycoses
# [4] = Plasma micafungin pharmacokinetics on day 7, Studies 2101 and 2102; type: in vivo, human; settings: for Cmax / tmax / AUCtau / CLss / CLss/wt: day 7 plasma
# [5] = Study 2101, 3 mg/kg, 6–11 years (n = 13)
# [6] = Study 2101, 3 mg/kg, 12–16 years (n = 12)
# [7] = Study 2101, 4.5 mg/kg, 2–5 years (n = 31)
# [8] = Study 2101, 4.5 mg/kg, 6–11 years (n = 20)
# [9] = Study 2102, 4.5 mg/kg, 4 months–<2 years (n = 9)
# [10] = pooled analysis of Phase I, II, III trials, 296 children
# [11] = Study 2101, 3 mg/kg i.v. once daily, 6–11 years (n = 4), min–max
# [12] = Study 2101, 3 mg/kg i.v. once daily, 12–16 years (n = 8), median
# [13] = Study 2101, 3 mg/kg i.v. once daily, 12–16 years (n = 8), min–max
# [14] = Study 2101, 4.5 mg/kg i.v. once daily, 2–5 years (n = 8), median
# [15] = Study 2101, 4.5 mg/kg i.v. once daily, 2–5 years (n = 8), min–max
# [16] = Study 2101, 4.5 mg/kg i.v. once daily, 6–11 years (n = 3), median
# [17] = Study 2101, 4.5 mg/kg i.v. once daily, 6–11 years (n = 3), min–max
# [18] = Study 2101, 4.5 mg/kg i.v. once daily, 12–16 years (n = 1), mean
# [19] = Study 2101, 4.5 mg/kg i.v. once daily, 12–16 years (n = 1), median
structure (smiles),measurement,setting,value
"CCCCCOc1ccc(-c2cc(-c3ccc(C(=O)N[C@H]4C[C@@H](O)[C@@H](O)NC(=O)[C@@H]5[C@@H](O)[C@@H](C)CN5C(=O)[C@H]([C@H](O)CC(N)=O)NC(=O)[C@H]([C@H](O)[C@@H](O)c5ccc(O)c(OS(=O)(=O)O)c5)NC(=O)[C@@H]5C[C@@H](O)CN5C(=O)[C@H]([C@@H](C)O)NC4=O)cc3)no2)cc1 [micafungin] (X1-[Orn(4R-OH,5R-OH)]T[Hyp][hTyr(3S-OH,4S-OH,3'-OSO3H)][Gln(3R-OH)][Pro(3S-OH,4S-Me)]; lactam 1-C)",Deaths considered related to micafungin treatment or to fungal infection,Safety assessments; Studies 2101 and 2102,None
same,Liver function abnormalities,Safety assessments; Study 2101 (Table 3),4–6%
same,AE leading to discontinuation,Safety assessments; [5],0
same,Any AE,Safety assessments; [5],9 (69)
same,Any SAE,Safety assessments; [5],1 (8)
same,Deaths,Safety assessments; [5],0
same,AE leading to discontinuation,Safety assessments; [6],2 (17)
same,Any AE,Safety assessments; [6],11 (92)
same,Any SAE,Safety assessments; [6],3 (25)
same,Deaths,Safety assessments; [6],1 (8)
same,AE leading to discontinuation,Safety assessments; [7],1 (3)
same,Any AE,Safety assessments; [7],25 (81)
same,Any SAE,Safety assessments; [7],3 (10)
same,Deaths,Safety assessments; [7],0
same,AE leading to discontinuation,Safety assessments; [8],1 (5)
same,Any AE,Safety assessments; [8],16 (80)
same,Any SAE,Safety assessments; [8],2 (10)
same,Deaths,Safety assessments; [8],2 (10)
same,AE leading to discontinuation,"Safety assessments; Study 2101, Total (n = 78)",4 (5)
same,Any AE,"Safety assessments; Study 2101, Total (n = 78)",62 (80)
same,Any SAE,"Safety assessments; Study 2101, Total (n = 78)",9 (12)
same,Deaths,"Safety assessments; Study 2101, Total (n = 78)",3 (4)
same,AEs that led to permanent discontinuation of micafungin,"Safety assessments; Study 2101, four children, all possibly or probably related",5%
same,Permanent discontinuation due to hypomagnesemia,"Safety assessments; Study 2101, n = 1/78",1%
same,Permanent discontinuation due to pyrexia,"Safety assessments; Study 2101, n = 1/78",1%
same,Permanent discontinuation due to infusion-associated symptoms,"Safety assessments; Study 2101, n = 2/78",3%
same,SAEs considered related to micafungin treatment,"Safety assessments; Study 2101, n = 2/78",3%
same,AE considered related to micafungin: hypomagnesemia,"Safety assessments; Study 2101, n = 5/78",6%
same,Children with SAEs who recovered with no residual effects,"Safety assessments; Study 2101, n = 6/9",67%
same,AE considered related to micafungin: pyrexia,"Safety assessments; Study 2101, n = 7/78",9%
same,"AE considered related to micafungin: infusion-associated symptoms (hypotension, hypertension, cyanosis)","Safety assessments; Study 2101, n = 9/78",12%
same,Children experiencing SAEs other than death,"Safety assessments; Study 2101, n = 9/78",12%
same,AE vomiting,"Safety assessments; Study 2101, n = 10/78",13%
same,AE hypokalemia,"Safety assessments; Study 2101, n = 11/78",14%
same,AE pyrexia,"Safety assessments; Study 2101, n = 15/78",19%
same,Children experiencing at least one AE,"Safety assessments; Study 2101, n = 62/78",80%
same,AE leading to discontinuation,Safety assessments; [9],2 (22)
same,Any AE,Safety assessments; [9],9 (100)
same,Any SAE,Safety assessments; [9],5 (56)
same,Deaths,Safety assessments; [9],1 (11)
same,SAEs considered related to micafungin treatment,"Safety assessments; Study 2102, n = 1/9 (pathological fracture, possibly related)",11%
same,Children with SAEs who recovered with no residual effects,"Safety assessments; Study 2102, n = 4/5",80%
same,Children experiencing SAEs other than death,"Safety assessments; Study 2102, n = 5/9",56%
same,Abnormal liver function tests (NOS) considered related to micafungin,"Safety assessments; Study 2102, one child of 9",11%
same,AEs that led to permanent discontinuation of micafungin,"Safety assessments; Study 2102, two children",22%
same,Tolerability,"Safety assessments; once-daily 3 mg/kg and 4.5 mg/kg, children and adolescents with proven, probable, or suspected Candida infection",well tolerated
same,AUCtau,[1]; 100 mg/day,101.6 µg·h/mL
same,AUCtau,[1]; 150 mg/day,166.7 µg·h/mL
same,Overall incidence of liver function abnormalities,[2]; pooled analysis of 3028 adult and pediatric patients,≤ 3%
same,Adverse events (AEs),[2]; [10],92%
same,Serious adverse events (SAEs),[2]; [10],~34%
same,AEs related to micafungin treatment,"[2]; pooled analysis, 296 children",27%
same,Related AEs/SAEs leading to discontinuation of therapy,"[2]; pooled analysis, 296 children",2%
same,SAEs related to micafungin treatment,"[2]; pooled analysis, n = 14/296 children",5%
same,Cmax,[3]; 3 mg/kg,30.4 µg/mL
same,Mean weight-adjusted CLss,[3]; 3 mg/kg,0.017 L/h/kg
same,Cmax,[3]; 4 mg/kg,43.5 µg/mL
same,Mean weight-adjusted CLss,[3]; 4 mg/kg,0.0142 L/h/kg
same,Mean AUCtau,[3]; 3 mg/kg,190.5 µg·h/mL
same,Mean AUCtau,[3]; 4.0 mg/kg,301.9 µg·h/mL
same,Cmax,"[4]; Study 2101, 3 mg/kg i.v. once daily, 6–11 years (n = 4), mean (SD), SD",20.8 (4.1) µg/mL
same,tmax,"[4]; Study 2101, 3 mg/kg i.v. once daily, 6–11 years (n = 4), median",1.1 h
same,AUCtau,[4]; [11],191.8 to 300.1 µg·h/mL
same,CLss,[4]; [11],344.8 to 625.7 mL/h
same,CLss/wt,[4]; [11],0.01 to 0.0154 L/h/kg
same,Cmax,[4]; [11],16.8 to 24.8 µg/mL
same,tmax,[4]; [11],1.0 to 1.2 h
same,CLss,[4]; [12],757.2 mL/h
same,tmax,[4]; [12],1.1 h
same,AUCtau,[4]; [13],158.9 to 240.1 µg·h/mL
same,CLss,[4]; [13],512.6 to 944.2 mL/h
same,CLss/wt,[4]; [13],0.0095 to 0.019 L/h/kg
same,Cmax,[4]; [13],12.2 to 44.5 µg/mL
same,tmax,[4]; [13],1.0 to 2.0 h
same,CLss,[4]; [14],222.9 mL/h
same,Cmax,[4]; [14],21.9 µg/mL
same,AUCtau,[4]; [15],110.0 to 335.4 µg·h/mL
same,CLss,[4]; [15],132.7 to 490.9 mL/h
same,CLss/wt,[4]; [15],0.0134 to 0.0409 L/h/kg
same,Cmax,[4]; [15],8.4 to 28.7 µg/mL
same,tmax,[4]; [15],1.0 to 2.1 h
same,AUCtau,[4]; [16],264.4 µg·h/mL
same,CLss,[4]; [16],332.1 mL/h
same,Cmax,[4]; [16],20.2 µg/mL
same,tmax,[4]; [16],2.1 h
same,AUCtau,[4]; [17],245.7 to 325.2 µg·h/mL
same,CLss,[4]; [17],255.3 to 384.7 mL/h
same,CLss/wt,[4]; [17],0.0138 to 0.0183 L/h/kg
same,Cmax,[4]; [17],17.9 to 24.0 µg/mL
same,tmax,[4]; [17],2.0 to 2.1 h
same,AUCtau,[4]; [18],339.0 µg·h/mL
same,CLss,[4]; [18],306.8 mL/h
same,CLss/wt,[4]; [18],0.0133 L/h/kg
same,Cmax,[4]; [18],24.9 µg/mL
same,tmax,[4]; [18],1.1 h
same,AUCtau,[4]; [19],339.0 µg·h/mL
same,CLss,[4]; [19],306.8 mL/h
same,CLss/wt,[4]; [19],0.0133 L/h/kg
same,Cmax,[4]; [19],24.9 µg/mL
same,tmax,[4]; [19],1.1 h
same,"CLss/wt, single child with highest value","[4]; Study 2101, 4.5 mg/kg, 2–5 years, single child, day 7",0.0409 L/h/kg
same,AUC(0-t),"[4]; human, plasma, iv, 4.5 mg/kg, Mean AUCtau, Study 2102",~300 µg·h/mL
